Experimental data from article PMC9501810, “Bitter Peptides YFYPEL, [sequence], and [sequence], Released during Gastric Digestion of Casein, Stimulate Mechanisms of Gastric Acid Secretion via Bitter Taste Receptors TAS2R16 and TAS2R38” (Journal of Agricultural and Food Chemistry, 2022).

Assays:
[1] = tested on: HGT-1 cells; experiment: Proton secretion assay (intracellular proton index IPX, SNARF-1-AM); assay type: cell-based, human; settings: for ΔIPX (change in intracellular proton index vs untreated cells): 10 min incubation in KRHB, mean ± SEM, n = 4–8
Experimental: The measurement of proton secretion from HGT-1 cells represents a well-established model for the identification of bitter compounds. By affecting extraoral bitter taste receptors with bitter compounds, a modulatory effect on proton secretion can be measured. For this purpose, cells were washed with KRHB and incubated with 3 μM of the intracellular pH indicator 1,5 carboxy-seminaphto-rhodafluor acetoxymethyl ester (SNARF-1-AM) under standard conditions. After 30 min, the cells were washed again with KRHB and then incubated with casein (0.01–10 μM equimolar related to the relevant forms αS1- and β-casein), hydrolysate (0.01–10 μM), or the peptides (0.01–200 μM). […] All substances were dissolved and diluted in KRHB. 1 mM histamine was used as a positive control. Measurements were performed using FlexStation 3 (Molecular Devices, USA). The excitation wavelength was 488 nm, and the emission wavelengths were 580 and 640 nm. For calibration (pH range 7.0–8.0), the intracellular and extracellular pH was adjusted with 2 μM nigericin in potassium buffer (20 mM NaCl, 110 mM KCl, 1 mM CaCl2, 1 mM MgSO4, 18 mM D-glucose, and 20 mM HEPES). The intracellular proton index (IPX) was calculated as the log2 value of the 580/640 ratio and compared with cells without treatment. Negative values represent increased secretion of protons and therefore stimulation of mechanisms regulating gastric acid secretion in HGT-1 cells. In contrast, positive values represent an inhibition of secretion compared to the untreated control.

[2] = Solubility of casein in the proton secretion assay; assay type: physicochemical; settings: casein in KRHB, concentrations above 10 µM could not be investigated
[3] = tested on: pepsin; experiment: In vitro gastric digestion of casein with targeted UHPLC-MS/MS-MRM quantitation of peptides; assay type: in vitro ADME, porcine; settings: 37 °C, n = 4; for degradation of the peptide during further in vitro gastric digestion: SGF pH 3 with pepsin, up to 6 h
Experimental: The in vitro digestion was based on the Nature protocol established by Brodkorb et al.([30]) For this, simulated salivary fluid (SSF, containing 15.1 mM KCl, 3.7 mM KH2PO4, 13.6 mM NaHCO3, 0.15 mM MgCl2(H2O)6, 0.06 mM (NH4)2CO3, 1.1 mM HCl, and 1.5 mM CaCl2(H2O)2) and simulated gastric fluid (SGF, containing 6.9 mM KCl, 0.9 mM KH2PO4, 25.0 mM NaHCO3, 47.2 mM NaCl, 0.12 mM MgCl2(H2O)6, 0.5 mM (NH4)2CO3, 15.6 mM HCl, and 0.15 mM CaCl2(H2O)2) were prepared. A total amount of 100 mg casein was suspended in 3 mL of SSF and incubated for 5 min at 37 °C in the tube rotator. After taking a sample (500 μL, t = 0 h), 2 mL of SGF was added and the pH was adjusted to 3 with 100 μL of HCl (1 M). After addition of 125 μL of pepsin solution (80,000 U/mL in 10 mM HCl), 275 μL of H2O was added to fill up to 5 mL. This was followed by further incubation at 37 °C in a tube rotator for 6 h. 500 μL of samples was taken at 0.25, 0.5, 0.75, 1, 2, 3, 4, 5, and 6 h, respectively. The samples were frozen in liquid nitrogen and stored at −80 °C until further analysis. For MS experiments, all samples were diluted 1:1 with 10% MeCN.
All targeted proteomics LC–MS/MS measurements were performed using a Sciex ExionLC AC (Sciex, Darmstadt, Germany) coupled to a 6500+ QTrap LC–MS/MS system (Sciex, Darmstadt, Germany) operating in the positive electrospray ionization mode. Data acquisition and instrumentation control were performed with AnalystTF software (v 1.7.1; Sciex, Darmstadt, Germany). Separation was performed using a 100 × 2.1 mm, 1.7 μm, Kinetex C18 column (Phenomenex, Aschaffenburg, Germany) with a guard column of the same type with 0.1% aqueous formic acid and acetonitrile containing 0.1% formic acid at a flow rate of 0.25 mL/min. The gradient was based on the following scheme: 0 min, 15% B; 7 min, 40% B; 7.5 min, 98% B; 10.5 min, 98% B; 10.8 min, 15% B; and 15 min, 15% B. The column oven temperature was set at 40 °C, and the injection volume was 1 μL per sample. For MS/MS measurements, the same parameters were used for all samples (ion spray voltage […], source temperature 450 °C, nebulizing gas 60 psi, and heating gas 30 psi). Nitrogen was set to 35 psi and served as a curtain gas to effectively dissolve the ions. To optimize the parameters DP, CE, and collision cell exit potential for each peptide and transition (Supporting Information Table-SI 2), standard solutions of the five synthesized peptides were injected directly into the MS ion source. Ionization parameters were optimized in positive ESI mode using AnalystTF software (v 1.7.1; Sciex, Darmstadt, Germany). For the preparation of the calibration curves, five peptides were dissolved individually in D2O (600 μL) and the concentration of the stock solutions was determined by qNMR.[35] For each peptide, seven calibration solutions (0.5, 1, 5, 10, 50, 100, and 200 μM) were diluted in 5% MeCN from these stock solutions. The data were analyzed using MultiQuant software (v 3.0.3; Sciex, Darmstadt, Germany).

[4] = tested on: Caco-2 cell monolayers; settings: Caco-2; cited from earlier work
From the text: In addition, transport through Caco-2 cell monolayers was ...

casein
ΔIPX (change in intracellular proton index vs untreated cells) ([1]; 5 µM, positive = inhibited proton secretion): +0.212 ± 0.029
ΔIPX (change in intracellular proton index vs untreated cells) ([1]; 10 µM, negative = stimulated, positive = inhibited proton secretion): +0.441 ± 0.037
change in mean IPX ([1]; casein concentrations below 5 µM (0.01–<5 µM, equimolar related to αS1- and β-casein)): No significant change
solubility [2]: poor solubility

PVVVPPFLQPEVM
concentrations at which a significant ΔIPX was found ([1]; tested 0.01–200 µM, 10 min): at 1 and 10 μM only
highest concentration released during in vitro digestion ([3]; 100 mg casein, SSF then SGF pH 3 with pepsin, 0–6 h, mean): up to 148.7 μM
degradation of the peptide during further in vitro gastric digestion [3]: not further degraded
transport through Caco-2 cell monolayers [4]: transport through Caco-2 cell monolayers was observed

YYVPLGTQ [bitter casein peptide αS1-CN165–172]
ΔIPX (change in intracellular proton index vs untreated cells) ([1]; 0.1 µM, IPX = log2 of 580/640 ratio, negative = stimulated proton secretion): −0.166 ± 0.017
degradation of the peptide during further in vitro gastric digestion [3]: no noticeable degradation
